Source: patent US20080311594A1, “USE OF FIBROBLAST GROWTH FACTOR 7 (Fgf7) AND OF THE RECEPTOR Fgfr2b AS BIOMARKERS” (priority 2007, published 2008)
Like-named read-outs stand apart in the source and are kept apart here.

Experiments:
[1] = tested on: T47-D cells; assay: Proliferation assay of T47-D cells with and without FGF7; assay type: cell-based, human; settings: for growth (of maximum control): 10^−11 mol/l; for inhibition at 10 µM: 10^−5 mol/l
Description: The influence of FGF7 on the activity of 11β-(4-acetylphenyl)-17β-hydroxy-17α-(1,1,2,2,2-pentafluoroethyl)estra-4,9-dien-3-one was investigated on T47-D cells. […] 50 ng/ml FGF7 were added to the medium, and the activity of ZK-PRA was determined in a proliferation assay.
It was thus possible to inhibit growth by 58% through withdrawal of E2.
T47-D cells proliferate only in the presence of E2, so that E2 ablation serves as check of maximum growth inhibition. In the proliferation test without Fgf7 it was thus possible to achieve a maximum inhibition of almost 60%. On addition of Fgf7 to the medium, the effect was substantially smaller and the inhibition was now only 29%. Fgf7 thus downregulates not only ER and PR, so that the target for antiestrogens and antiprogestagens is lost, but additionally acts per se as growth factor, so that antihormonal effects or ablation of hormones are compensated. Fgf7 is a potent biomarker candidate. […] This was confirmed in an independent, second in vivo experiment. Fgf7 is a unidirectional, paracrine factor which has a local effect, but is nevertheless secreted, so that investigation is required of whether an elevated Fgf7 serum level possibly correlates with a non-response to treatment with 11β-(4-acetylphenyl)-17β-hydroxy-17α-(1,1,2,2,2-pentafluoroethyl)-estra-4,9-dien-3-one.

[2] = molecular target: T1, progesterone receptor (Homo sapiens, UniProt P06401); settings: Fuhrmann et al., J. Med. Chem. 2000; cited from earlier work
T1 sequence (P06401 1-933): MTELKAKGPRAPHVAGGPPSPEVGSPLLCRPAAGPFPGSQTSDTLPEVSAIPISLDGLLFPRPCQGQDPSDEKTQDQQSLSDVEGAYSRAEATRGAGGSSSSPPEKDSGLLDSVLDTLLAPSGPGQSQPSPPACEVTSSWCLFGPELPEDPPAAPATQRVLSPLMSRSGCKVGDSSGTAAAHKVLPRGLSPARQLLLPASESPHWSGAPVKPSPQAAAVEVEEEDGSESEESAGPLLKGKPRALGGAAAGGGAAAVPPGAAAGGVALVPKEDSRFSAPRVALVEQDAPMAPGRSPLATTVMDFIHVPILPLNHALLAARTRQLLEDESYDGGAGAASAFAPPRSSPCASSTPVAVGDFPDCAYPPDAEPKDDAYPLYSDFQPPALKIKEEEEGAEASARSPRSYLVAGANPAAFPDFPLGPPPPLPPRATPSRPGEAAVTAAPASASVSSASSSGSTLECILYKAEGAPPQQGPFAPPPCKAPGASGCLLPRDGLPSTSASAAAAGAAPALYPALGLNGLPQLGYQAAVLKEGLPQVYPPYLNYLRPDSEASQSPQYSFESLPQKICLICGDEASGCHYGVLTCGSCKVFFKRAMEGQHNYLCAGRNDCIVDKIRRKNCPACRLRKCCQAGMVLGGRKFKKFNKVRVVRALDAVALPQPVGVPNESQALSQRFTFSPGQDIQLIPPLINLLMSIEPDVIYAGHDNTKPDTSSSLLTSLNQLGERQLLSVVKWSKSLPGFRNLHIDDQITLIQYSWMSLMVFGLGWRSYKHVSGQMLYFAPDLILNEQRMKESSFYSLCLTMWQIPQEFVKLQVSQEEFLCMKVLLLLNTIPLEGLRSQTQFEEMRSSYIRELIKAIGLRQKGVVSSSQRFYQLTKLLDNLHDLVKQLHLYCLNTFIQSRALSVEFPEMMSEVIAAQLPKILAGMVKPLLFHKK

[3] = tested on: MXT-M3 tumour; assay: MXT-M3 tumour model in mice, tumour weight at end of test; assay type: in vivo
Description: For the test, an MXT-M3 tumour which was no longer strictly hormone-dependent was transplanted into mice.
The MXT(+) tumour model was induced in C57BLxDBA2F1 mice by intraperitoneal administration of a urethane solution. The developing mammary tumour could be transplanted further to mice with the same genetic background (syngeneic) and is still an established model. The MXT(+) model is distinguished very particularly by the fact that the tumours express both ER and PR in physiological concentrations. Although there are other hormone receptor-positive tumour models, frequently ER and PR are not functional therein and show no translocation from the cytoplasm into the nucleus after stimulation. Nor is it possible to show growth inhibition by hormone ablation here. These models are unsuitable for investigating antihormonal substances (Watson, Medina et al. 1977).
At the end of the test, the animals were sacrificed and the tumours were removed, and then the weight of the tumours was determined. The variation in the tumour weights is high in each group. The average tumour weights in the vehicle control group (427 mg) was 2.8 times higher than in the ovariectomized group (155 mg) and 2.2 times as high as in the group treated with 11β-(4-acetylphenyl)-17β-hydroxy-17α-(1,1,2,2,2-pentafluoroethyl)estra-4,9-dien-3-one (192 mg).
(§1) A limit was set in the ovariectomized group and that treated with 11β-(4-acetyl-phenyl)-17β-hydroxy-17α-(1,1,2,2,2-pentafluoroethyl)estra-4,9-dien-3-one: tumours having a weight higher than 100 mg were assessed as non-responders, and tumours with a weight less than 100 mg were classified as responders.
It was possible in the investigation of the tumour RNA of the in vivo experiment from Example 1 to identify biomarker candidates. To confirm these potential candidates, an independent animal experiment was carried out with the same study design, increasing the number of animals from ten to 20 per group. At the end of the test, the tumours were removed, the tumour weight was determined and the tumours were stored at −80° C. until RNA was isolated. The results are depicted in FIG. 2/5.
(§2) Exactly as in Test 1, the limit for response to the therapy and the non-response was set here at a tumour weight of 100 mg. The five largest tumours were selected from the control group. The RNA was isolated from the tumours, and gene expression of the biomarker candidates was determined.

[4] = tested on: Fgf7; assay: Gene expression of Fgf7 in MXT tumours, GeneChip (Affymetrix) analysis; assay type: in vivo, mice; settings: Example 1, non-responders (>100 mg) vs responders (<100 mg)
Description: (§3) For further gene expression studies, the RNA of selected tumours was isolated and analysed further by GeneChip analyses and real-time PCR:
(§4) The five largest tumours from the vehicle control group were selected.
as §1

[5] = tested on: Fgf7; assay: Gene expression of Fgf7 in MXT tumours, real-time PCR; assay type: in vivo, mice; settings: for Real-time regulation ZK-PRA NR versus vehicle control / Real-time regulation ZK-PRA R versus vehicle control: Fgf7; for Real-time regulation ZK-PRA NR versus vehicle control: non-responder tumours; for Real-time regulation ZK-PRA R versus vehicle control: responder tumours
Description: as §3, §4, §1, §2

[6] = tested on: Fgfr2; assay: Relative expression of Fgfr2 versus 18S rRNA in model cell lines; assay type: cell-based, human
Description: Relative Expression of Fgfr2 Versus 18S rRNA in 6 Model Cell Lines […]
Expression of the receptor for fibroblast growth factor 7 (Fgf7) was not regulated in the sensitive T47-D cells on treatment with ZK-PRA (1.1 times higher on treatment with ZK-PRA). Expression in the ZK-PRA-resistant T47-D without treatment was twice as high as in the sensitive T47-D cells and declined somewhat with ZK-PRA treatment to 1.3 times the value of the untreated sensitive T47-D cells. Expression in all other cells was considerably less both in normal medium and on treatment with ZK-PRA: […]

[7] = tested on: Fgfr2; assay: Gene expression of Fgfr2 in MXT tumours, real-time PCR; assay type: in vivo, mice; settings: for Real-time regulation ZK-PRA NR versus vehicle control / Real-time regulation ZK-PRA R versus vehicle control: Fgfr2; for Real-time regulation ZK-PRA NR versus vehicle control: non-responder tumours; for Real-time regulation ZK-PRA R versus vehicle control: responder tumours
Description: as §3, §4, §1, §2

[8] = tested on: MCF-7 cells; settings: recombinant Fgf7 added to the culture medium, Chang et al. 2006; cited from earlier work
[9] = tested on: progesterone receptor (PR-A, PR-B) in T47-D cells; assay: Western blot analysis of the progesterone receptor under the influence of FGF7; assay type: cell-based, human; settings: Fgf7 20 and 50 ng/ml, 24 h and 72 h
Description: It is reported in the literature that FGF7 downregulates both ER and PR. In order to detect this effect, cells were incubated in medium with various amounts of FGF7 for 24 h and 72 h, and then the PR content was determined.

In the case of `CC(=O)c1ccc([C@H]2C[C@@]3(C)[C@@H](CC[C@@]3(O)C(F)(F)C(F)(F)F)[C@@H]3CCC4=CC(=O)CCC4=C32)cc1` [ZK-PRA, 11β-(4-acetylphenyl)-17β-hydroxy-17α-(1,1,2,2,2-pentafluoroethyl)estra-4,9-dien-3-one], the “growth (of maximum control)” value ([1]; FGF7 50 ng/ml) is reported as 114%, the “growth (of maximum control)” value ([1]; without FGF7) is reported as 114% and the maximum growth inhibition ([1]; Fgf7 50 ng/ml in the culture medium, no dose-response relation) is reported as “about 20%”. It also gave an inhibition at 10 µM ([1]; Homo sapiens, T47D, FGF7 50 ng/ml in the medium, read-out: growth inhibition) of 24%, an inhibition at 10 µM ([1]; Homo sapiens, T47D, without FGF7, maximum control (E2) = 100%, read-out: growth inhibition) of 42% and an inhibition at 1 µM ([1]; Homo sapiens, T47D, 10^−6 mol/l, without FGF7, read-out: growth inhibition) of 47%. For the same molecule, the inhibition at 0.1 µM ([1]; Homo sapiens, T47D, 10^−7 mol/l, without FGF7, read-out: growth inhibition) was 50%, the growth inhibition ([1]; next lower concentration after 10^−5 mol/l, FGF7 50 ng/ml) was 18% and the “activity in the proliferation assay” value ([1]; sensitive T47-D cells, without FGF7) was “good activity”. For the same molecule, the antiprogestational activity [2] was “high antiprogestational activity”, the average tumour weight ([3]; Example 1, treated group, end of test) was 192 mg and the “average tumour weight of vehicle control group relative to treated group” value ([3]; Example 1, vehicle 427 mg) was 2.2 times. For the same molecule, the average tumour weight ([3]; Example 2 confirmation experiment, treated group) was 215 mg, the “average tumour weight of vehicle control group relative to treated group” value ([3]; Example 2 confirmation experiment, vehicle 577 mg) was 2.7 times and the “Affymetrix regulation ZK-PRA NR versus ZK-PRA R” value [4] was 2.30 (±0.33). The “Fgf7 expression in non-responder tumours relative to vehicle controls” value ([5]; Example 1) was 3.12 times, the “Fgf7 expression in responder tumours compared with the controls” value ([5]; Example 1) was 70% and the “Real-time regulation ZK-PRA NR versus vehicle control” value ([5]; Example 1) was 3.12 (±0.68). The “Real-time regulation ZK-PRA R versus vehicle control” value ([5]; Example 1) was 0.69 (±0.38), the “Real-time regulation ZK-PRA NR versus vehicle control” value ([5]; Example 2 confirmation) was 3.25 (±1.91) and the “Real-time regulation ZK-PRA R versus vehicle control” value ([5]; Example 2 confirmation) was 1.72 (±0.68). For the same molecule, the “Fgfr2 mRNA on treatment compared with untreated T47-D cells” value ([6]; BT-474 cells) was 37 times lower, the “Fgfr2 mRNA on treatment compared with untreated sensitive T47-D cells” value ([6]; MCF-7 cells) was 153 times lower and the “Fgfr2 expression on treatment relative to untreated sensitive T47-D cells” value ([6]; ZK-PRA-resistant T47-D cells) was 1.3 times. For the same molecule, the “Fgfr2 expression on treatment compared with T47-D under normal conditions” value ([6]; ZR75-1 cells) was 9.4 times lower, the “Fgfr2 expression on treatment relative to untreated” value ([6]; sensitive T47-D cells) was 1.1 times higher and the “Fgfr2 expression, non-responders vs. control” value ([7]; Example 1) was 55%. For the same molecule, the “Fgfr2 expression, responder tumours vs. control” value ([7]; Example 1) was 30%, the “Real-time regulation ZK-PRA NR versus vehicle control” value ([7]; Example 1) was 0.55 (±0.30) and the “Real-time regulation ZK-PRA R versus vehicle control” value ([7]; Example 1) was 0.30 (±0.07). For the same molecule, the “Real-time regulation ZK-PRA NR versus vehicle control” value ([7]; Example 2 confirmation) was 0.25 (±0.20) and the “Real-time regulation ZK-PRA R versus vehicle control” value ([7]; Example 2 confirmation) was 0.47 (±0.34).

In the case of `CC/C(=C(\c1ccccc1)c1ccc(OCCN(C)C)cc1)c1ccccc1` [tamoxifen], the “activity in proliferation tests” value [8] is given as “no activity”.

B1: Fgf7: Fibroblast growth factor 7, secreted glycoprotein; recombinant Fgf7 added to culture medium (protein, UniProt P21781 32-194, looked up)
Fibroblast growth factor 7: CNDMTPEQMATNVNCSSPERHTRSYDYMEGGDIRVRRLFCRTQWYLRIDKRGKVKGTQEMKNNYNIMEIRTVAVGIVAIKGVESEFYLAMNKEGKLYAKKECNEDCNFKELILENHYNTYASAKWTHNGGEMFVALNQKGIPVRGKKTKKEQKTAHFLPMAIT
In the case of B1, the “amount of PR (Western blot)” value [9] is reported as “distinct decrease in PR”.
